Measurements: PubChem BioAssay AID1963851 (Molecular Pharmacology Branch, DTP, NCI, 2024)

Test system: 188146-221-R-J1-PDC complex spheroid viability
Experiment: Anticancer human tumor 188146-221-R-J1-PDC patient-derived colon adenocarcinoma cell line growth inhibition [POLQ]
Conditions: for IC50: curve of first compound; for viability, T/C: stronger effect = lower value
Procedure: Multicellular complex tumor spheroid response to Polymerase (POL) inhibitors (novobiocin, ART-558, RP6685) in combination with a variety of drugs and investigational agents in selected tumor cell lines
The POL inhibitors (novobiocin, ART-558, and RP6685) were evaluated both individually and in combination with standard of care and investigational anticancer small molecules within a complex spheroid model of solid tumors. . Complex spheroids include a stromal component modeled by human endothelial cells (HUVEC) and fibroblasts modeled by human mesenchymal stem cells (MSCs). The concentration ranges selected for each drug and investigational agent were based upon clinically achievable concentrations if the clinical Cmax of the agent was known.
Compounds. The drugs and investigational agents: novobiocin (NSC847541), ART-558 (NSC835418), RP-6685 (NSC848927), peposertib (NSC802822), ceralasertib (NSC780249), elimusertib (NSC800525), camonsertib (NSC841442), AZD-1390 (NSC803789), olaparib (NSC753686), talazoparib (NSC767125), rucaparib (NSC756644), sotorasib (NSC818433), MRTX-1133 (NSC836407), SN-38 (NSC673596), topotecan (NSC609699), epotoside (NSC141540), doxorubicin (NSC123127), gemcitabine (NSC613327), 5-fluorouracil (NSC19893), paclitaxel (NSC125973), vemurafenib (NSC761431), MSA-2 (NSC828583), SN-011 (NSC837082), adavosertib (NSC754352), prexasertib (NSC758257), carboplatin (NSC241240) and oxaliplatin (NSC266046), were obtained from the National Cancer Institute (NCI) Developmental Therapeutics Program Chemical Repository (21). The FDA-approved anticancer drug set is available from the Developmental Therapeutics Program at https://dtp.cancer.gov/organization/dscb/obtaining/. […] The stock solutions were prepared in dimethyl sulfoxide (DMSO, Sigma-Aldrich, St. Louis, MO, cat. D2650), except for the platinum compounds which were prepared in saline (Quality Biological, Gaithersburg, MD, cat. 114-055-101), at 800-fold the tested concentration and stored at -70 degrees C prior to their use. All drugs and investigational agents were tested over a range starting from a high concentration at or near the clinical Cmax and decreasing in half-log increments. If the clinical Cmax for an agent had not been determined, the highest concentration tested was 10 microM, except for SN-38, which was tested at a high concentration of 1 microM.
Cell Culture. All cells were maintained in an incubator at 37 degrees C and 5% CO2 with 95% humidity. The PDC lines were cultured according to standard operating procedures established by the NCI PDMR (https://pdmr.cancer.gov). Table 3 of the manuscript, lists the cell lines along with the number of the three cell types plated to form the mct-spheroids and media for tumor cell growth. After thawing, all PDC lines, except 997537-175-T-J1-PDC and 415267-285-R-J2-PDC, were cultured in Matrigel-coated flasks prepared with a working solution of 1X Ham's F-12 nutrient mix, without supplementation (Thermo Fisher Scientific, cat. 11765054), 100 U/mL penicillin-streptomycin (Thermo Fisher Scientific, cat. 15140122), and 2.5% Matrigel (Corning Inc., Corning, NY, cat. 354248) for the first three passages. The two PDC lines 997537-175-T-J1-PDC and 415267-285-R-J2-PDC were cultured on uncoated flasks. The 857933-349-R-J2-PDC line was cultured in 6C/Colon 1B media containing advanced DMEM/F-12 (Thermo Fisher Scientific, cat. 12634028), 10 mM HEPES (Thermo Fisher Scientific, cat. 15630080), 1X GlutaMAX supplement (Thermo Fisher Scientific, cat. 35050061), 0.1 mg/mL primocin (InvivoGen, San Diego, CA, cat. ant-pm-2), 10% defined fetal bovine serum, heat inactivated (HyClone Laboratories Inc., Logan, UT, cat. SH30070.03HI), 50% L-WRN conditioned media (ATCC, cat. CRL-3276), 1.25 mM N-Acetyl-L-cysteine (Sigma-Aldrich, cat. A9165), 10 mM nicotinamide (Sigma-Aldrich, cat. N0636), 1X B-27 supplement (Thermo Fisher Scientific, cat. 17504044), 1X N-2 supplement (Thermo Fisher Scientific, cat. […]
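Further: spheroids exposed to compounds for seven days.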
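Wherever viability, T/C is given: 100% = DMSO vehicle control viability.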

In the case of `CC(=O)O[C@H]1C(=O)[C@@]2(C)[C@H]([C@H](OC(=O)c3ccccc3)[C@]3(O)C[C@H](OC(=O)[C@H](O)[C@@H](NC(=O)c4ccccc4)c4ccccc4)C(C)=C1C3(C)C)[C@]1(OC(C)=O)CO[C@@H]1C[C@@H]2O` + COC1C(OC(N)=O)C(O)C(Oc2ccc3c(O)c(NC(=O)c4ccc(O)c(CC=C(C)C)c4)c(=O)oc3c2C)OC1(C)C, the IC50 (second compound 0.0316 µM) is reported as 16.4 nM, the IC50 (second compound 0.1 µM) is reported as 17.2 nM and the IC50 (second compound 0.316 µM) is reported as 16.8 nM. It also gave an IC50 (second compound 1 µM) of 14.4 nM, an IC50 (second compound 3.16 µM) of 17.2 nM and an IC50 (second compound 10 µM) of 16 nM. The viability, T/C (second compound 0.0316 µM, first compound 0.00949 µM) was 76%, the viability, T/C (second compound 0.0316 µM, first compound 0.03 µM) was 21% and the viability, T/C (second compound 0.0316 µM, first compound 0.0949 µM) was 10.8%. It also gave a viability, T/C (second compound 0.0316 µM, first compound 0.3 µM) of 10.2%, a viability, T/C (second compound 0.0316 µM, first compound 0.949 µM) of 10.4% and a viability, T/C (second compound 0.0316 µM, first compound 3 µM) of 9.91%. It also gave a viability, T/C (second compound 0.1 µM, first compound 0.00949 µM) of 80.1%, a viability, T/C (second compound 0.1 µM, first compound 0.03 µM) of 21.7% and a viability, T/C (second compound 0.1 µM, first compound 0.0949 µM) of 12.2%. The viability, T/C (second compound 0.1 µM, first compound 0.3 µM) was 9.8%, the viability, T/C (second compound 0.1 µM, first compound 0.949 µM) was 8.82% and the viability, T/C (second compound 0.1 µM, first compound 3 µM) was 9.35%. It also gave a viability, T/C (second compound 0.316 µM, first compound 0.00949 µM) of 75.9%, a viability, T/C (second compound 0.316 µM, first compound 0.03 µM) of 24.3% and a viability, T/C (second compound 0.316 µM, first compound 0.0949 µM) of 9.19%. For the same compound, the viability, T/C (second compound 0.316 µM, first compound 0.3 µM) was 11.9%, the viability, T/C (second compound 0.316 µM, first compound 0.949 µM) was 9.74% and the viability, T/C (second compound 0.316 µM, first compound 3 µM) was 11.2%. The viability, T/C (second compound 1 µM, first compound 0.00949 µM) was 66.3%, the viability, T/C (second compound 1 µM, first compound 0.03 µM) was 21.7% and the viability, T/C (second compound 1 µM, first compound 0.0949 µM) was 10.2%. The viability, T/C (second compound 1 µM, first compound 0.3 µM) was 10%, the viability, T/C (second compound 1 µM, first compound 0.949 µM) was 10.6% and the viability, T/C (second compound 1 µM, first compound 3 µM) was 9.98%. For the same compound, the viability, T/C (second compound 3.16 µM, first compound 0.00949 µM) was 84%, the viability, T/C (second compound 3.16 µM, first compound 0.03 µM) was 18.2% and the viability, T/C (second compound 3.16 µM, first compound 0.0949 µM) was 12.6%. The viability, T/C (second compound 3.16 µM, first compound 0.3 µM) was 8.24%, the viability, T/C (second compound 3.16 µM, first compound 0.949 µM) was 11.4% and the viability, T/C (second compound 3.16 µM, first compound 3 µM) was 10.8%. For the same compound, the viability, T/C (second compound 10 µM, first compound 0.00949 µM) was 75.6%, the viability, T/C (second compound 10 µM, first compound 0.03 µM) was 19.2% and the viability, T/C (second compound 10 µM, first compound 0.0949 µM) was 11.2%. The viability, T/C (second compound 10 µM, first compound 0.3 µM) was 9.41%, the viability, T/C (second compound 10 µM, first compound 0.949 µM) was 12.8% and the viability, T/C (second compound 10 µM, first compound 3 µM) was 11.8%.
